# Measured values as given in US20070167492A1, “Molluscicidal agents” (priority 2003, published 2007).
# Experiments:
# [1] = tested on: Winter wheat (Kampa race) seeds; experiment: Seed germination test of treated winter wheat seeds (rolled in paper); type: in vivo; conditions: 3x50 seeds, 6 days at 22° C.
# Method: (§1) Winter wheat (Kampa race; thousand grain weight of 51 grams) was used in an experiment to test the efficacy of the compositions of the present inventions in relation to known molluscicidal compounds. The seeds were disinfected for soil and germ moulds with 2 ml of Beret Gold (comprising 25 g/l of the fungicide fludioxonil) per kg of seed.
# (§2) Sepiret® was added to all dry disinfections, and is the coating that was added to all agents of which the formulation was not suitable for coating.
# Table 2 provides an overview of the amounts of diluent water and Sepiret® used for treating the wheat seeds. Table 2 further provides the quality of the coating and the percentages of germinating seeds in a seed germination test. In this test, the percentage of germination of 3×50 seeds, rolled in paper, was determined after 6 days at 22° C. (continuously) and a 16 hours light regime.
# [2] = tested on: Deroceras reticulatum (grey field slug); experiment: Example 1: pot test, treated winter wheat seed with 5 adult slugs per pot, 14 days; type: in vivo; conditions: for differences in the number of damaged seeds / protection / slug controlling effect (conclusion): Example 1, dosages tested; for protection / slug controlling effect (conclusion): winter wheat seed treatment
# Method: as §1, §2
# The seeds were sown in earthenware pots with an internal diameter of 20 cm and a height of 18 cm, filled with 7 cm of potting soil (Trio BV, Weesp, The Netherlands) and with a top 2 cm of white quartz sand. A total of 40 seeds was placed in each pot, in a pattern of concentric circles on top of the quartz sand, the germ facing upwards. To each pot a total of 5 adult specimens of the test slug Deroceras reticulatum (grey field slug) were added. The pots were incubated at ±15° C. with a relative humidity of ±90% and light regime of ±12 hours light/12 hours dark, without artificial lighting. The pots were not irrigated overhead. In total, 4 parallel tests were performed for each test.
# Following the addition of the slugs, the number of damaged seeds was counted after 2, 3, 7, 10 and 14 days. The number of plants present (germinated and not eaten or damaged by the slugs) was determined 3, 7, 10 and 14 days after the start of the test. […] The number of dead slugs was counted 2, 3, 7, 10 and 14 days after the start of the test (but not removed). Finally, on days 3, 7, 10 and 14 after the start of the test, the number fecal pellets was counted.
# The data were statistically analysed by using F-tests (α=0.05) and pair-wise Student-tests.
# [3] = 2 ml formulated per kg seed, 2 days after sowing
# [4] = 2 ml formulated per kg seed, 3 days after sowing
# [5] = 2 ml formulated per kg seed, 7 days after sowing
# [6] = 2 ml formulated per kg seed, 10 days after sowing
# [7] = 2 ml formulated per kg seed, 14 days after sowing
# [8] = 10 ml formulated per kg seed, 2 days after sowing
# [9] = 10 ml formulated per kg seed, 3 days after sowing
# [10] = 10 ml formulated per kg seed, 7 days after sowing
# [11] = 10 ml formulated per kg seed, 10 days after sowing
# [12] = 10 ml formulated per kg seed, 14 days after sowing
# [13] = 4 ml formulated per kg seed, 2 days after sowing
# [14] = 4 ml formulated per kg seed, 3 days after sowing
# [15] = 4 ml formulated per kg seed, 7 days after sowing
# [16] = 4 ml formulated per kg seed, 10 days after sowing
# [17] = 4 ml formulated per kg seed, 14 days after sowing
# [18] = 8 ml formulated per kg seed, 2 days after sowing
# [19] = 8 ml formulated per kg seed, 3 days after sowing
# [20] = 8 ml formulated per kg seed, 7 days after sowing
# [21] = 8 ml formulated per kg seed, 10 days after sowing
# [22] = 8 ml formulated per kg seed, 14 days after sowing
smiles,measurement,setting,value
CC=C(C)C(=O)OC1CC(OC(C)=O)C2(C(=O)OC)COC3C2C12COC(O)(C(=O)OC)C2C(C)(C12OC1(C)C1CC2OC2OC=CC21O)C3O (stereo not shown) [azadirachtine],Percentage germinated,[1]; 2 ml formulated per kg seed,90%
same,Percentage germinated,[1]; 10 ml formulated per kg seed,65%
same,number of utilizable plants after 14 days,[2]; 2 ml formulated per kg seed,0.8
same,percentage of damaged seeds after 14 days,[2]; 2 ml formulated per kg seed,95%
same,Mean number of damaged seeds per pot,[2]; [3],5.8
same,Mean number of dead slugs per pot,[2]; [3],0.3
same,Mean number fecal pellets per pot,[2]; [4],62
same,Mean number of damaged seeds per pot,[2]; [4],20.8
same,Mean number of dead slugs per pot,[2]; [4],0.3
same,Mean number of plants present per pot,[2]; [4],5.3
same,Mean number fecal pellets per pot,[2]; [5],106
same,Mean number of damaged seeds per pot,[2]; [5],37.0
same,Mean number of dead slugs per pot,[2]; [5],0.3
same,Mean number of plants present per pot,[2]; [5],1.0
same,Mean number fecal pellets per pot,[2]; [6],139
same,Mean number of damaged seeds per pot,[2]; [6],37.0
same,Mean number of dead slugs per pot,[2]; [6],0.3
same,Mean number of plants present per pot,[2]; [6],1.3
same,Mean number fecal pellets per pot,[2]; [7],156
same,Mean number of damaged seeds per pot,[2]; [7],38.0
same,Mean number of dead slugs per pot,[2]; [7],0.5
same,Mean number of plants present per pot,[2]; [7],0.8
same,number of utilizable plants after 14 days,[2]; 10 ml formulated per kg seed,2.3
same,percentage of damaged seeds after 14 days,[2]; 10 ml formulated per kg seed,86%
same,Mean number of damaged seeds per pot,[2]; [8],4.0
same,Mean number of dead slugs per pot,[2]; [8],0
same,Mean number fecal pellets per pot,[2]; [9],32
same,Mean number of damaged seeds per pot,[2]; [9],13.0
same,Mean number of dead slugs per pot,[2]; [9],0
same,Mean number of plants present per pot,[2]; [9],4.8
same,Mean number fecal pellets per pot,[2]; [10],93
same,Mean number of damaged seeds per pot,[2]; [10],30.5
same,Mean number of dead slugs per pot,[2]; [10],0
same,Mean number of plants present per pot,[2]; [10],2.8
same,Mean number fecal pellets per pot,[2]; [11],130
same,Mean number of damaged seeds per pot,[2]; [11],32.5
same,Mean number of dead slugs per pot,[2]; [11],0.3
same,Mean number of plants present per pot,[2]; [11],3.3
same,Mean number fecal pellets per pot,[2]; [12],138
same,Mean number of damaged seeds per pot,[2]; [12],34.5
same,Mean number of dead slugs per pot,[2]; [12],0.3
same,Mean number of plants present per pot,[2]; [12],3.8
same,differences in the number of damaged seeds,[2],did not result in significant differences
same,protection / slug controlling effect (conclusion),[2],no sufficient protection to the plants
"COc1cc(C=CC(=O)O)cc(OC)c1 [dimethoxycinnamic acid, 3,5-dimethoxycinnamic acid]",Percentage germinated,[1]; 2 ml formulated per kg seed,75%
same,Percentage germinated,[1]; 4 ml formulated per kg seed,75%
same,Percentage germinated,[1]; 8 ml formulated per kg seed,38%
same,number of utilizable plants after 14 days,[2]; 2 ml formulated per kg seed,0
same,percentage of damaged seeds after 14 days,[2]; 2 ml formulated per kg seed,99%
same,Mean number of damaged seeds per pot,[2]; [3],5.0
same,Mean number of dead slugs per pot,[2]; [3],0
same,Mean number fecal pellets per pot,[2]; [4],66
same,Mean number of damaged seeds per pot,[2]; [4],17.5
same,Mean number of dead slugs per pot,[2]; [4],0
same,Mean number of plants present per pot,[2]; [4],3.5
same,Mean number fecal pellets per pot,[2]; [5],115
same,Mean number of damaged seeds per pot,[2]; [5],39.5
same,Mean number of dead slugs per pot,[2]; [5],0.3
same,Mean number of plants present per pot,[2]; [5],0
same,Mean number fecal pellets per pot,[2]; [6],133
same,Mean number of damaged seeds per pot,[2]; [6],39.3
same,Mean number of dead slugs per pot,[2]; [6],0.3
same,Mean number of plants present per pot,[2]; [6],0
same,Mean number fecal pellets per pot,[2]; [7],141
same,Mean number of damaged seeds per pot,[2]; [7],39.8
same,Mean number of dead slugs per pot,[2]; [7],0.8
same,Mean number of plants present per pot,[2]; [7],0
same,number of utilizable plants after 14 days,[2]; 4 ml formulated per kg seed,1.5
same,percentage of damaged seeds after 14 days,[2]; 4 ml formulated per kg seed,87%
same,Mean number of damaged seeds per pot,[2]; [13],4.3
same,Mean number of dead slugs per pot,[2]; [13],0
same,Mean number fecal pellets per pot,[2]; [14],46
same,Mean number of damaged seeds per pot,[2]; [14],17.3
same,Mean number of dead slugs per pot,[2]; [14],0.3
same,Mean number of plants present per pot,[2]; [14],9.3
same,Mean number fecal pellets per pot,[2]; [15],120
same,Mean number of damaged seeds per pot,[2]; [15],31.8
same,Mean number of dead slugs per pot,[2]; [15],0.3
same,Mean number of plants present per pot,[2]; [15],1.8
same,Mean number fecal pellets per pot,[2]; [16],138
same,Mean number of damaged seeds per pot,[2]; [16],32.0
same,Mean number of dead slugs per pot,[2]; [16],0.3
same,Mean number of plants present per pot,[2]; [16],2.0
same,Mean number fecal pellets per pot,[2]; [17],158
same,Mean number of damaged seeds per pot,[2]; [17],34.8
same,Mean number of dead slugs per pot,[2]; [17],1.0
same,Mean number of plants present per pot,[2]; [17],2.0
same,number of utilizable plants after 14 days,[2]; 8 ml formulated per kg seed,1.0
same,percentage of damaged seeds after 14 days,[2]; 8 ml formulated per kg seed,84%
same,Mean number of damaged seeds per pot,[2]; [18],1.8
same,Mean number of dead slugs per pot,[2]; [18],0
same,Mean number fecal pellets per pot,[2]; [19],60
same,Mean number of damaged seeds per pot,[2]; [19],13.0
same,Mean number of dead slugs per pot,[2]; [19],0
same,Mean number of plants present per pot,[2]; [19],1.5
same,Mean number fecal pellets per pot,[2]; [20],106
same,Mean number of damaged seeds per pot,[2]; [20],30.3
same,Mean number of dead slugs per pot,[2]; [20],0
same,Mean number of plants present per pot,[2]; [20],1.0
same,Mean number fecal pellets per pot,[2]; [21],150
same,Mean number of damaged seeds per pot,[2]; [21],31.5
same,Mean number of dead slugs per pot,[2]; [21],0
same,Mean number of plants present per pot,[2]; [21],1.5
same,Mean number fecal pellets per pot,[2]; [22],158
same,Mean number of damaged seeds per pot,[2]; [22],33.8
same,Mean number of dead slugs per pot,[2]; [22],0
same,Mean number of plants present per pot,[2]; [22],1.5
same,differences in the number of damaged seeds,[2],did not result in significant differences
same,protection / slug controlling effect (conclusion),[2],no slug controlling effect
